Experimental data taken from patent US5665760A, “Lyophilized thioxanthenone antitumor agents” (priority 1995, dated 1997).

Assays:
Format in all cases: in vivo
[1] = test system: pancreatic ductal adenocarcinoma #03; experiment: antitumor activity in mice against pancreatic ductal adenocarcinoma #03 (Panc 03); conditions: for Weight Loss / Drug Deaths: Table 1, total doses as in E1; for Weight Loss: average body weight 25 g
Description: (§1) Representative examples of the invention were tested for antitumor activity in mice according to the following procedure:
(§2) The animals were pooled, implanted subcutaneously with 30 to 60 mg tumor fragments by 12-gauge trocar, and again pooled before unselective distribution to the various treatment and control groups. For early-stage treatment, chemotherapy was started within 1 to 5 days after tumor implantation while the number of cells was relatively small (10^7 to 10^8 cells). For advanced-stage treatment, chemotherapy was delayed until the tumor became relatively large (200 to 300 mg in size). A 300-mg tumor contains approximately 3×10^8 total cells. […] Tumors were measured with a caliper weekly (or twice weekly for the more rapidly growing tumors). Mice were sacrificed when their tumors reached 1500 mg (i.e., before they can cause the animal discomfort). Tumor weights were estimated from two-dimensional measurements.
(§3) The treatment and control groups were measured when the control group tumors reached approximately 700 to 1200 mg in size (Median of Group). The median tumor weight of each group was determined (including zeros). […] A T/C value <10% is considered to indicate highly significant antitumor activity.
(§4) The results are shown in Table I for pancreatic ductal adenocarcinoma #03 and in Table 2 for colon adenocarcinoma #38.

colon adenocarcinoma #38 = experiment: antitumor activity in mice against colon adenocarcinoma #38; conditions: for Drug Deaths / Weight Loss: Table 2
Description: as §1, §2, §3, §4

[2] = test system: P388/adriamycin resistant leukemia; experiment: P388/adriamycin resistant leukemia, cells implanted i.v.
[3] = test system: Mammary Adenocarcinoma 16/C/RP; experiment: antitumor activity in mice against Mammary Adenocarcinoma 16/C/RP; conditions: i.v. infusion days 1, 4
Description: as §1
The animals were pooled, implanted subcutaneously with 30 to 60 mg tumor fragments by 12-gauge trocar, and again pooled before unselective distribution to the various treatment and control groups. For early-stage treatment, chemotherapy was started within 1 to 5 days after tumor implantation while the number of cells was relatively small (10^7 to 10^8 cells). For advanced-stage treatment, chemotherapy was delayed until the tumor became relatively large (200 to 300 mg in size). A 300-mg tumor contains approximately 3×10^8 total cells. Tumors within a given advanced-stage trial were within a 2.5-fold size range for 90% of the animals. Tumors were measured with a caliper weekly (or twice weekly for the more rapidly growing tumors). Mice were sacrificed when their tumors reached 1500 mg (i.e., before they can cause the animal discomfort). Tumor weights were estimated from two-dimensional measurements.
The treatment and control groups were measured when the control group tumors reached approximately 700 to 1200 mg in size (Median of Group). The median tumor weight of each group was determined (including zeros). The T/C value (weight of treated tumors over the weight of control tumors) in percent is an indication of antitumor effectiveness: A T/C equal to or less than 42% is considered significant antitumor activity by the Drug Evaluation Branch of the Division of Cancer Treatment (NCl). A T/C value <10% is considered to indicate highly significant antitumor activity. A body weight loss nadir (mean of group) of greater than 20% or greater than 20% drug-deaths is considered to indicate an excessively toxic dosage.

[4] = Mus musculus, ip, read-out: T/C
[5] = i.p., total dose mg/kg by Example: 10:340, 11:518
[6] = p.o., total dose mg/kg by Example: 10:460, 11:885
[7] = p.o., total dose mg/kg by Example: 10:740, 11:1709
[8] = 10^5 cells, 200 mg/kg total, i.v. 3 hour infusion days 1, 4
[9] = 10^5 cells, 320 mg/kg total, i.v. 3 hour infusion days 1, 4
[10] = 10^5 cells, 520 mg/kg total, i.v. 3 hour infusion days 1, 4
[11] = 10^5 cells, 150 mg/kg total, i.v. 3 hour infusion days 1, 4
[12] = 10^5 cells, 300 mg/kg total, i.v. 3 hour infusion days 1, 4
[13] = 10^5 cells, 450 mg/kg total, i.v. 3 hour infusion days 1, 4
[14] = 10^6 cells, 280 mg/kg total, i.v. 3 hour infusion day 1
[15] = 10^6 cells, 450 mg/kg total, i.v. 3 hour infusion day 1
[16] = 10^6 cells, 76 mg/kg total, i.v. […] infusion day 1
[17] = 10^6 cells, 123 mg/kg total, i.v. […] infusion day 1
[18] = 10^6 cells, 198 mg/kg total, i.v. […] infusion day 1
[19] = 10^6 cells, 320 mg/kg total, i.v. […] infusion day 1

## CCN(CC)CCNc1ccc(CNC(C)=O)c2sc3ccccc3c(=O)c12 [Example 10, N-[[1-[[2-(Diethylamino)ethyl]amino]-9-oxo-thioxanthen-4-yl]methyl]acetamide]
[1]
  Weight Loss: 2.4 g
  Drug Deaths: 0
Colon adenocarcinoma #38; [4]
  response vs control in vivo at 160 mg/kg: 22%
  response vs control in vivo at 200 mg/kg: 24%
  response vs control in vivo at 865 mg/kg: 23%
Colon adenocarcinoma #38; [5]
  Drug Deaths: 0
  Weight Loss: 4.0 g
Colon adenocarcinoma #38; [6]
  Drug Deaths: 0
  Weight Loss: 1.2 g
Colon adenocarcinoma #38; [7]
  Drug Deaths: 2/5
  Weight Loss: 4.0 g
Colon adenocarcinoma #38; total dose 160 mg/kg i.p.
  Drug Deaths: 0
  Weight Loss: 0.6 g
Colon adenocarcinoma #38; total dose 200 mg/kg i.p.
  Drug Deaths: 0
  Weight Loss: 2.3 g
Colon adenocarcinoma #38; total dose 865 mg/kg i.p.
  Drug Deaths: 0
  Weight Loss: 2.0 g
[2]; [8]
  Drug Deaths: 0/7
  Wt. Loss at Nadir: -1.5 g/mouse
[2]; [9]
  Drug Deaths: 0/5
  Wt. Loss at Nadir: -1.75 g/mouse
[2]; [10]
  Drug Deaths: 3/7
  Wt. Loss at Nadir: -3.75 g/mouse
[2]; iv, 200 mg/kg
  Tumor Cell: 0/7
[2]; iv, 200 mg/kg, 3 h
  % ILS (percentage increase in lifespan): 8%
  Log10 Tumor cell kill: 0.5
[2]; iv, 320 mg/kg
  Tumor Cell: 0/5
[2]; iv, 320 mg/kg, 3 h
  % ILS (percentage increase in lifespan): 23%
  Log10 Tumor cell kill: 1.5
[2]; iv, 520 mg/kg, 3 h
  % ILS (percentage increase in lifespan): 54%
  Log10 Tumor cell kill: 3.5

## CCN(C=O)Cc1ccc(NCCN(CC)CC)c2c(=O)c3ccccc3sc12 [Example 13, N-[[1-[[2-(Diethylamino)ethyl]amino]-9-oxothioxanthen-4-yl]methyl]-N-ethylformamide]
[1]
  T/C: 0%
  Weight Loss: 2.4 g
  Drug Deaths: 0
[2]; [11]
  Drug Deaths: 0/8
  Wt. Loss at Nadir: -1.75 g/mouse
[2]; [12]
  Drug Deaths: 0/7
  Wt. Loss at Nadir: -1.75 g/mouse
[2]; [13]
  Drug Deaths: 2/7
  Wt. Loss at Nadir: -3.0 g/mouse
[2]; iv, 150 mg/kg, 3 h
  % ILS (percentage increase in lifespan): 8%
  Log10 Tumor cell kill: 0.5
[2]; iv, 300 mg/kg
  Tumor Cell: 0/7
[2]; iv, 300 mg/kg, 3 h
  % ILS (percentage increase in lifespan): 15%
  Log10 Tumor cell kill: 1.0
[2]; iv, 450 mg/kg
  Tumor Cell: 0/7
[2]; iv, 450 mg/kg, 3 h
  % ILS (percentage increase in lifespan): 38%
  Log10 Tumor cell kill: 2.5

## CCN(CC)CCNc1ccc(CNC)c2sc3ccc(OC)cc3c(=O)c12 [Example 30(h), 1-[[2-(Diethylamino)ethyl]amino]-4-[(methylamino)methyl]-7-methoxy-thioxanthen-9-one]
[1]
  T/C: 0%
  Weight Loss: 1.4 g
  Drug Deaths: 0
[3]; 400 mg/kg total
  Drug Deaths: 0/5
  T/C Value: 46%
  Wt. Loss at Nadir: -1.0 g/mouse
[3]; 600 mg/kg total
  Drug Deaths: 0/5
  T/C Value: 23%
  Wt. Loss at Nadir: -0.7 g/mouse
[3]; 900 mg/kg total
  Drug Deaths: 1/6
  T/C Value: 29%
  Wt. Loss at Nadir: 0 g/mouse
[2]; [14]
  Drug Deaths: 0/7
  Wt. Loss at Nadir: -1.7 g/mouse
[2]; [15]
  Drug Deaths: 0/7
  Wt. Loss at Nadir: -2.3 g/mouse
[2]; iv, 280 mg/kg
  % ILS (percentage increase in lifespan): 69%
  Log10 Tumor cell kill: 6.0
  Tumor Cell: 2/7
[2]; iv, 450 mg/kg
  % ILS (percentage increase in lifespan): 62%
  Log10 Tumor cell kill: 5.3
  Tumor Cell: 0/7

## CCN(CC)CCNc1ccc(CNC(=O)OC)c2sc3ccccc3c(=O)c12 [Example 34, Methyl N-[[1-[[2-(diethylamino)ethyl]amino]-9-oxothioxanthen-4-yl]methyl]carbamate]
[1]
  Weight Loss: 3.6 g
  Drug Deaths: 0
[2]; [16]
  Drug Deaths: 0/5
  Wt. Loss at Nadir: -0.4 g/mouse
[2]; [17]
  Drug Deaths: 0/5
  Wt. Loss at Nadir: -1.2 g/mouse
[2]; [18]
  Drug Deaths: 0/5
  Wt. Loss at Nadir: -1.2 g/mouse
[2]; [19]
  % ILS (percentage increase in lifespan): toxic
  Drug Deaths: 5/5
  Log10 Tumor cell kill: LD100
  Wt. Loss at Nadir: -3.6 g/mouse
[2]; iv, 76 mg/kg
  % ILS (percentage increase in lifespan): 0%
  Log10 Tumor cell kill: 0
  Tumor Cell: 0/5
[2]; iv, 123 mg/kg
  % ILS (percentage increase in lifespan): 8.3%
  Log10 Tumor cell kill: 0.7
  Tumor Cell: 0/5
[2]; iv, 198 mg/kg
  % ILS (percentage increase in lifespan): 41.7%
  Log10 Tumor cell kill: 3.3
  Tumor Cell: 0/5
[2]; iv, 320 mg/kg
  Tumor Cell: 0/5
